pIC50: −log10 of the molar value. Where a SMILES comes first, the peptide text is derived from it. Bridges are numbered along the chain shown (N, C = ends). [ ]: non-standard residue; d: D form. The star is where a group is joined. ξ: configuration not given here. Phe(3-CF3) = N[C@@H](Cc1cccc(C(F)(F)F)c1)C(=O)O; Ala(morpholin-4-yl) = N[C@@H](CN1CCOCC1)C(=O)O; Phe(4-COOH) = N[C@@H](Cc1ccc(C(=O)O)cc1)C(=O)O; Bip = N[C@@H](Cc1ccc(-c2ccccc2)cc1)C(=O)O; Phe(3-OMe) = COc1cccc(C[C@H](N)C(=O)O)c1; Phe(4-NH2) = Nc1ccc(C[C@H](N)C(=O)O)cc1; Phe(3-Me) = Cc1cccc(C[C@H](N)C(=O)O)c1; Gly(cPent) = N[C@H](C(=O)O)C1CCCC1; hPhe = N[C@@H](CCc1ccccc1)C(=O)O; 4Pal = N[C@@H](Cc1ccncc1)C(=O)O; Cha = N[C@@H](CC1CCCCC1)C(=O)O; Cit = NC(=O)NCCC[C@H](N)C(=O)O; Gly(cPr) = N[C@H](C(=O)O)C1CC1; Ile(3ξ) = CCC(C)[C@H](N)C(=O)O; Thr(3ξ) = CC(O)[C@H](N)C(=O)O; dDab = NCC[C@@H](N)C(=O)O; Carboxymethyl = O=C(O)C*; Orn = NCCC[C@H](N)C(=O)O; Pra = C#CC[C@H](N)C(=O)O; Dab = NCC[C@H](N)C(=O)O; Nva = CCC[C@H](N)C(=O)O; Dap = NC[C@H](N)C(=O)O; Propargyl = C#CC*
The molecules below were run against T1, human PD-1 / PD-L1-Ig binding on Jurkat cell line over-expressing human PD-1 (Jurkat-PD-1) (Homo sapiens, UniProt Q15116) (assay: Jurkat-PD-1 Cell Binding High-Content Screening Assay (CBA)). Conditions: Jurkat-PD-1 cells, PE-labeled PD-L1-Ig 20 nM final; read-out: Jurkat HPD1_PDL1 IC50.
T1 construct: expressed in transfected cells; host or cells: Jurkat
T1 sequence (Q15116 25-288): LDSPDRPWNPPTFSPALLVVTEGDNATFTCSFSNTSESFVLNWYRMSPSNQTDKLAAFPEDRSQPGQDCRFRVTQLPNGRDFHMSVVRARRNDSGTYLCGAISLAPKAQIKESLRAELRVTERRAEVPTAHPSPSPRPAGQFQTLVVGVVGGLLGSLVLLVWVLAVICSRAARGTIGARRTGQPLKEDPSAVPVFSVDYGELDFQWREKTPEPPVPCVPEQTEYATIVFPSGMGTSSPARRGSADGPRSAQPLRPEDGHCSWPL
Type: cell-based
Summary of the method: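 Binding of fluorescent PD-L1-Ig (phycoerythrin linked via the Ig tag, 20 nM final) to PD-1-overexpressing Jurkat cells was imaged after a 2 h, 37° C compound pretreatment and 1 hour ligand incubation.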

With `CC(C)C[C@H]1NC(=O)[C@H](CCCN)NC(=O)[C@H](CCCN)NC(=O)[C@H](Cc2ccc(-c3ccccc3)cc2)NC(=O)[C@H](Cc2ccc(C(=O)O)cc2)NC(=O)[C@H](Cc2cccc(C(F)(F)F)c2)NC(=O)[C@H](CC(N)=O)NC(=O)[C@H](Cc2ccc(OCC(=O)O)cc2)NC(=O)[C@H](CN2CCOCC2)NC(=O)CSC[C@@H](C(=O)N[C@@H](CCN)C(N)=O)NC(=O)[C@H](CCCN)NC(=O)[C@H](C(C)C)NC(=O)[C@H](CC2CCCCC2)NC(=O)[C@H](CCN)NC1=O` [Example 2726] ({CH2CO}-[Ala(morpholin-4-yl)]Y(Carboxymethyl)N[Phe(3-CF3)][Phe(4-COOH)][Bip][Orn][Orn][dL][Dab][Cha]V[Orn]C[Dab]-NH2; thioether N-14) as the molecule, how does the pIC50 read?
The pIC50 was 7.18.

With `C#CCOc1ccc(C[C@@H]2NC(=O)[C@@H](CC(C)C)NC(=O)[C@H](CCCN)NC(=O)[C@H](C(C)C)NC(=O)[C@H](Cc3ccc(-c4ccccc4)cc3)NC(=O)[C@H](C(C)C)NC(=O)[C@H](Cc3cccc(C)c3)NC(=O)[C@H](CC(=O)O)NC(=O)[C@H](Cc3ccc(C(=O)O)cc3)NC(=O)[C@H](CN)NC(=O)CSC[C@@H](C(=O)N[C@@H](CCN)C(N)=O)NC(=O)[C@H]([C@@H](C)O)NC(=O)[C@H](C(C)C)NC(=O)[C@H](CC3CCCCC3)NC2=O)cc1` [Compound 2026] ({CH2CO}-[Dap][Phe(4-COOH)]D[Phe(3-Me)]V[Bip]V[Orn][dL]Y(Propargyl)[Cha]VTC[Dab]-NH2; thioether N-14) as the molecule, how does the pIC50 read?
The pIC50 was 6.88.

How did the pIC50 turn out when `CC(C)C[C@H]1NC(=O)[C@H](CCCN)NC(=O)[C@H](CCCNC(N)=O)NC(=O)[C@H](Cc2ccc(-c3ccccc3)cc2)NC(=O)[C@H](C(C)C)NC(=O)[C@H](Cc2c[nH]c3ccccc23)NC(=O)[C@H](CC(=O)O)NC(=O)[C@H](Cc2ccc(OCC(=O)O)cc2)NC(=O)[C@H](CN)NC(=O)CSC[C@@H](C(=O)N[C@@H](C)C(N)=O)NC(=O)[C@H]([C@@H](C)O)NC(=O)[C@H](C(C)C)NC(=O)[C@H](CCc2ccccc2)NC(=O)[C@H](CCN)NC1=O` [Compound 1364] ({CH2CO}-[Dap]Y(Carboxymethyl)DWV[Bip][Cit][Orn][dL][Dab][hPhe]VTCA-NH2; thioether N-14) was run?
Its pIC50 is 7.24.

`Cc1cccc(C[C@@H]2NC(=O)[C@H](CC(=O)O)NC(=O)[C@H](Cc3ccncc3)NC(=O)[C@H](Cc3ccc(OCC(=O)O)cc3)NC(=O)CSC[C@@H](C(=O)N[C@@H](C)C(N)=O)NC(=O)[C@H]([C@@H](C)O)NC(=O)[C@H](C(C)C)NC(=O)[C@H](CC3CCCCC3)NC(=O)[C@H](CCN)NC(=O)[C@@H](CC(C)C)NC(=O)[C@H](CCCN)NC(=O)[C@H](CCC(=O)O)NC(=O)[C@H](Cc3ccc(-c4ccccc4)cc3)NC(=O)[C@H](C(C)C)NC2=O)c1` [Compound 1419] ({CH2CO}-Y(Carboxymethyl)[4Pal]D[Phe(3-Me)]V[Bip]E[Orn][dL][Dab][Cha]VTCA-NH2; thioether N-14) was tested. Which pIC50 did it give?
Its pIC50 is 8.14.

`CC(C)[C@@H]1NC(=O)[C@H](Cc2c[nH]c3ccccc23)NC(=O)[C@H](CC(=O)O)NC(=O)[C@H](Cc2ccncc2)NC(=O)[C@H](Cc2ccc(OCC(=O)O)cc2)NC(=O)CSC[C@@H](C(=O)N[C@@H](C)C(N)=O)NC(=O)[C@H]([C@@H](C)O)NC(=O)[C@H](C(C)C)NC(=O)[C@H](CC2CCCCC2)NC(=O)[C@H](CCN)NC(=O)[C@@H](Cc2ccccc2)NC(=O)[C@H](CCCN)NC(=O)[C@H](CCC(=O)O)NC(=O)[C@H](Cc2ccc(-c3ccccc3)cc2)NC1=O` [Compound 1434] ({CH2CO}-Y(Carboxymethyl)[4Pal]DWV[Bip]E[Orn][dF][Dab][Cha]VTCA-NH2; thioether N-14) was tested. Which pIC50 did it give?
The pIC50 was 7.44.

With `COc1cccc(C[C@@H]2NC(=O)[C@H](CC(=O)O)NC(=O)[C@H](Cc3ccc(O)cc3)NC(=O)[C@H](CC(N)=O)NC(=O)CSC[C@@H](C(=O)N[C@@H](C)C(N)=O)NC(=O)[C@H]([C@@H](C)O)NC(=O)[C@H](C(C)C)NC(=O)[C@H](CC3CCCCC3)NC(=O)[C@H](CCN)NC(=O)[C@@H](CC(C)C)NC(=O)[C@H](CCCN)NC(=O)[C@H](CCC(=O)O)NC(=O)[C@H](Cc3ccc(-c4ccccc4)cc3)NC(=O)[C@H](C(C)C)NC2=O)c1` [Compound 1466] ({CH2CO}-NYD[Phe(3-OMe)]V[Bip]E[Orn][dL][Dab][Cha]VTCA-NH2; thioether N-14) as the molecule, how does the pIC50 read?
The pIC50 was 7.79.

`CC(C)C[C@H]1NC(=O)[C@H](CCCN)NC(=O)[C@H](CCC(=O)O)NC(=O)[C@H](Cc2ccc(-c3ccccc3)cc2)NC(=O)[C@H](C(C)C)NC(=O)[C@H](Cc2c[nH]c3ccccc23)NC(=O)[C@H](CC(=O)O)NC(=O)[C@H](Cc2ccc(N)cc2)NC(=O)[C@H](Cc2ccccc2)NC(=O)CSC[C@@H](C(=O)N[C@@H](C)C(N)=O)NC(=O)[C@H]([C@@H](C)O)NC(=O)[C@H](C(C)C)NC(=O)[C@H](CC2CCCCC2)NC(=O)[C@H](CCN)NC1=O` [Compound 2181] ({CH2CO}-F[Phe(4-NH2)]DWV[Bip]E[Orn][dL][Dab][Cha]VTCA-NH2; thioether N-14) was tested. Which pIC50 did it give?
Its pIC50 is 7.58.

`Cc1cccc(C[C@@H]2NC(=O)[C@H](CC(=O)O)NC(=O)[C@H](Cc3ccc(OCC(=O)O)cc3)NC(=O)[C@H](CN)NC(=O)CSC[C@@H](C(=O)N[C@@H](CCN)C(N)=O)NC(=O)[C@@H](CCN)NC(=O)[C@H](C(C)C)NC(=O)[C@H](CC3CCCCC3)NC(=O)[C@H](CCN)NC(=O)[C@@H](CC(C)C)NC(=O)[C@H](CCCN)NC(=O)[C@H](Cc3ccc(O)cc3)NC(=O)[C@H](Cc3ccc(-c4ccccc4)cc3)NC(=O)[C@H](Cc3ccc(O)cc3)NC2=O)c1` [Compound 2045] ({CH2CO}-[Dap]Y(Carboxymethyl)D[Phe(3-Me)]Y[Bip]Y[Orn][dL][Dab][Cha]V[dDab]C[Dab]-NH2; thioether N-14) was tested. Which pIC50 did it give?
Its pIC50 is 7.98.

With `Cc1cccc(C[C@@H]2NC(=O)[C@H](CC(=O)O)NC(=O)[C@H](Cc3ccc(OCC(=O)O)cc3)NC(=O)[C@H](CCCNC(=N)N)NC(=O)CSC[C@@H](C(=O)N[C@@H](CO)C(N)=O)NC(=O)[C@H](CO)NC(=O)[C@H](C(C)O)NC(=O)[C@H](CC3CCCCC3)NC(=O)[C@H](CCN)NC(=O)[C@@H](CC(C)C)NC(=O)[C@H](CCCN)NC(=O)[C@H](CCCNC(N)=O)NC(=O)[C@H](Cc3ccc(-c4ccccc4)cc3)NC(=O)[C@H](C(C)C)NC2=O)c1` (stereo partly drawn) [Compound 2598] ({CH2CO}-RY(Carboxymethyl)D[Phe(3-Me)]V[Bip][Cit][Orn][dL][Dab][Cha][Thr(3ξ)]SCS-NH2; thioether N-14) as the molecule, how does the pIC50 read?
Its pIC50 is 7.85.

`CC(C)C[C@@H]1NC(=O)[C@H](Cc2c[nH]c3ccccc23)NC(=O)[C@H](CC(=O)O)NC(=O)[C@H](Cc2ccc(O)cc2)NC(=O)[C@H](Cc2ccccc2)NC(=O)CSC[C@@H](C(=O)NCC(N)=O)NC(=O)[C@H](CO)NC(=O)[C@H](C(C)C)NC(=O)[C@H](CC(C)C)NC(=O)[C@H](CCN)NC(=O)[C@@H](C)NC(=O)[C@H](CCCN)NC(=O)[C@H](C(C)C)NC(=O)[C@H](Cc2ccc(-c3ccccc3)cc2)NC1=O` [Compound 1096] ({CH2CO}-FYDWL[Bip]V[Orn][dA][Dab]LVSCG-NH2; thioether N-14) was tested. Which pIC50 did it give?
The pIC50 was 7.16.

`CC(C)C[C@H]1NC(=O)[C@H](CN)NC(=O)[C@H](C(C)C)NC(=O)[C@H](Cc2ccc(-c3ccccc3)cc2)NC(=O)[C@H](C(C)C)NC(=O)[C@H](Cc2c[nH]c3ccccc23)NC(=O)[C@H](CC(=O)O)NC(=O)[C@H](Cc2ccc(C(=O)O)cc2)NC(=O)[C@H](Cc2ccc(OCC(=O)O)cc2)NC(=O)CSC[C@@H](C(=O)NCC(N)=O)NC(=O)[C@H](CO)NC(=O)[C@H](C(C)C)NC(=O)[C@H](CC2CCCCC2)NC(=O)[C@H](CC(N)=O)NC1=O` [Compound 1413] ({CH2CO}-Y(Carboxymethyl)[Phe(4-COOH)]DWV[Bip]V[Dap][dL]N[Cha]VSCG-NH2; thioether N-14) was tested. Which pIC50 did it give?
Its pIC50 is 8.06.

With `C#CC[C@H](NC(=O)[C@H](CCN)NC(=O)[C@@H]1CSCC(=O)N[C@@H](CCC)C(=O)N[C@@H](Cc2ccc(OCC(=O)O)cc2)C(=O)N[C@@H](CC(=O)O)C(=O)N[C@@H](Cc2cccc(C)c2)C(=O)N[C@@H](Cc2ccc(C(=O)O)cc2)C(=O)N[C@@H](Cc2ccc(-c3ccccc3)cc2)C(=O)N[C@@H](Cc2ccc(C(=O)O)cc2)C(=O)N[C@@H](CCCN)C(=O)N[C@H](CC(C)C)C(=O)N[C@@H](CCN)C(=O)N[C@@H](CC2CCCCC2)C(=O)N[C@@H](C(C)C)C(=O)N[C@@H](CCC(=O)O)C(=O)N1)C(=O)O` [Compound 1822] ({CH2CO}-[Nva]Y(Carboxymethyl)D[Phe(3-Me)][Phe(4-COOH)][Bip][Phe(4-COOH)][Orn][dL][Dab][Cha]VEC[Dab][Pra]-OH; thioether N-14) as the molecule, how does the pIC50 read?
The pIC50 was 8.24.

`CC(C)C[C@H]1NC(=O)[C@H](CCCN)NC(=O)[C@H](CCC(=O)O)NC(=O)[C@H](Cc2ccc(-c3ccccc3)cc2)NC(=O)[C@H](C2CC2)NC(=O)[C@H](Cc2c[nH]c3ccccc23)NC(=O)[C@H](CC(=O)O)NC(=O)[C@H](Cc2ccc(OCC(=O)O)cc2)NC(=O)[C@H](CN)NC(=O)CSC[C@@H](C(=O)N[C@@H](C)C(N)=O)NC(=O)[C@H]([C@@H](C)O)NC(=O)[C@H](C(C)C)NC(=O)[C@H](CC2CCCCC2)NC(=O)[C@H](CCN)NC1=O` [Compound 1716] ({CH2CO}-[Dap]Y(Carboxymethyl)DW[Gly(cPr)][Bip]E[Orn][dL][Dab][Cha]VTCA-NH2; thioether N-14) was tested. Which pIC50 did it give?
Its pIC50 is 7.60.

Same assay, conditions: read-out: Jurkat HPD1_PDL1 IC50; Jurkat-PD-1 cells, PE-labeled PD-L1-Ig 20 nM final

`CCC(C)[C@@H]1NC(=O)[C@H](Cc2ccc(-c3ccccc3)cc2)NC(=O)[C@H](C2CCCC2)NC(=O)[C@H](Cc2c[nH]c3ccccc23)NC(=O)[C@H](CC(=O)O)NC(=O)[C@H](Cc2ccc(OCC(=O)O)cc2)NC(=O)[C@H](C(C)O)NC(=O)CSC[C@@H](C(=O)N[C@@H](CC(N)=O)C(=O)O)NC(=O)[C@H](CO)NC(=O)[C@H](C(C)C)NC(=O)[C@H](CC(C)C)NC(=O)[C@H](CCN)NC(=O)[C@@H](CC(C)C)NC(=O)[C@H](CCCN)NC1=O` (stereo partly drawn) [Compound 2578] ({CH2CO}-[Thr(3ξ)]Y(Carboxymethyl)DW[Gly(cPent)][Bip][Ile(3ξ)][Orn][dL][Dab]LVSCN-OH; thioether N-14) was tested. Which pIC50 did it give?
Its pIC50 is 7.61.
